The subject of series [1] is smokers. As to the kind of experiment: Influence of deoxypeganine on the smoking of healthy subjects. Format: in vivo, human. The conditions noted are these: for Cigarette consumption after administration of 50 mg of deoxypeganine HCl/day: subject (smoker), 50 mg/day, administration period 24 hours. As to the method:
Example: Influence of deoxypeganine on the smoking of healthy subjects
In the context of the testing of a deoxypeganine-containing formulation which releases about 50 mg of deoxypeganine hydrochloride per day in vivo, in addition to other subjects two smokers were also used as test subjects, as “smoking” was not an exclusion criterion in the testing. […] The administration period was 24 hours.

Series [2] concerns monoamine oxidase. As to conditions: cited from earlier work.
For series [3] the following is noted: in contrast to neostigmine; cited from earlier work.
Series [4] has as its target acetylcholinesterase (Homo sapiens, UniProt P22303). As to conditions: cited from earlier work.

Chain of acetylcholinesterase (P22303 32-614, species assumed): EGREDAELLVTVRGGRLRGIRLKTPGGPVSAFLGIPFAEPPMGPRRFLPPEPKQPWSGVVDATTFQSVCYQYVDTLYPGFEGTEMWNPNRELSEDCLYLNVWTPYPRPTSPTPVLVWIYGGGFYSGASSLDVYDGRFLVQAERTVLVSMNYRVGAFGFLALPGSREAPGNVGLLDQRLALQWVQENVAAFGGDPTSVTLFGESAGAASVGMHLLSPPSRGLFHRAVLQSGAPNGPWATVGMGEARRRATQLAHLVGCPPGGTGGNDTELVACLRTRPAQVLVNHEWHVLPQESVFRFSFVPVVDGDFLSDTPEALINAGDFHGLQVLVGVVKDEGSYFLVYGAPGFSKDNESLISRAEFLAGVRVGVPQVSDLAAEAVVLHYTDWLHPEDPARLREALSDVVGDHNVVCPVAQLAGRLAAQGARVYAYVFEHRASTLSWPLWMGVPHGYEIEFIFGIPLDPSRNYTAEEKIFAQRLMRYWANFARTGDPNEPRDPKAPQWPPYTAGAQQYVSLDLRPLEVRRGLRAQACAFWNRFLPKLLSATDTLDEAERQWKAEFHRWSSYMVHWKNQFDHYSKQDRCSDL

For `c1ccc2c(c1)CN1CCCC1=N2` [deoxypeganine], in series [1] (single administration of 50 mg/day), the “Reduction in cigarette consumption” value is “considerable reduction”. Moreover, in series [2], the Monoamine oxidase inhibition result is on record as “inhibits”. Further, the Blood-brain barrier crossing entry in series [3] is listed as “crosses the blood-brain barrier”. Besides, the “Cholinesterase inhibitory action in comparison to physostigmine” value in series [4] (based on the unit of weight) was “somewhat lower”. Moreover, the Acetylcholinesterase inhibition result in series [4] (reversibly acting cholinesterase inhibitor) was “inhibits”.
Turning to `Cl.c1ccc2c(c1)CN1CCCC1=N2` [deoxypeganine HCl, deoxypeganine hydrochloride], the “Cigarette consumption after administration of 50 mg of deoxypeganine HCl/day” value in series [1] (without deoxypeganine 22 cigarettes/day (mean of n = 3)) is given as 3 cigarettes; in series [1] (without deoxypeganine 41 cigarettes/day (mean of n = 5)), 6 cigarettes. Moreover, in series [1] (two smokers, formulation releasing about 50 mg of deoxypeganine hydrochloride per day, 24 hours), the Desire for cigarettes entry was “obviously suppressed”.
